# Results reported in patent US11312719B2, “9-substituted amino triazolo quinazoline derivatives as adenosine receptor antagonists, pharmaceutical compositions and their use” (Merck Sharp & Dohme Corp., priority 2018, dated 2022).
# Tests used:
# human A2A receptors = human A2A receptors (Homo sapiens (Human), UniProt P29274); assay: A2A antagonism in cAMP cell-based assay (LANCE cAMP, HEK293); conditions: HEK293 cells expressing human A2A receptor
# Procedure: Measurement of A2A and A2B Antagonism in cAMP Cell-Based Assay
# The ability of compounds to antagonize human A2A and A2B adenosine receptors was determined using a kit to measure changes in intracellular cyclic AMP levels (LANCE cAMP 384 Kit, Perkin Elmer, Cat. No. AD0264). HEK293 cells recombinantly expressing either human A2A or A2B receptors, previously frozen in Recovery Medium (Life Technologies, Cat. No. 12648-010) were thawed and diluted into stimulation buffer (HBSS (Hyclone SH 30268.01), 5 mM HEPES (Gibco 15630-106), 200 nM rolipram (Tocris, Cat. No. 0905), and 1.5% (V/v) BSA stabilizer (kit component). The cell suspension was centrifuged at 200×g for 10 min and then resuspended in stimulation buffer, supplemented with a 1:10 000 dilution of Alexa Fluor 647 anti-cAMP antibody, to a density of 6.0×10^5 cells/mL. A Labcyte Echo 550 acoustic dispenser was used to transfer up to 25 nL of test compound dissolved in DMSO into the wells of a dry Optiplate-384 plate (Perkin Elmer, Cat. No. 6008289). All subsequent liquid additions were performed using a multichannel pipettor. Next, 5 μL of the cell suspension was added to the wells of the Optiplate-384 and incubated for 30 min. at 37° C. and 5% CO2 in a humidified environment. After this time 5 μL of either 300 nM or 600 nM adenosine (Sigma Cat. No. A9251) for A2A and A2B respectively was added and incubated for 30 minutes at 37° C. and 5% CO2 in a humidified environment. At this time detection mix was prepared by combining the LANCE Eu-W8044 labeled streptavidin and Biotin-cAMP in detection buffer according to the manufacturers protocol. 10 μL of the detection mix was added to each well of the Optiplate-384 which was covered with a plate seal and incubated under ambient conditions for 2 hours prior to reading the plate using an Envision (Perkin Elmer, Waltham, Mass.) multimode plate reader. Data was normalized by defining minimal effect as stimulation in the presence of 0.25% (v/v) DMSO and maximal effect as stimulation in the presence of 1 μM ZM241385 (Cayman, Cat. No. 1036). Curve fitting of the percent effect data versus the log of compound concentration used a 4-parameter concentration response curve fitting algorithm to calculate IC50 values. Compound concentrations tested were 10,000, 3,333, 1,111, 370.4, 123.4, 41.2, 13.7, 4.6, 1.5 and 0.5 nM with 0.25% residual DMSO.
# [1] = target: human A2a adenosine receptor (Homo sapiens (Human), UniProt P29274); assay: A2a receptor affinity radioligand binding assay ([3H] SCH58261); conditions: membranes from HEK293 or CHO cells expressing human A2a receptor
# Sequence of human A2a adenosine receptor (P29274 whole entry): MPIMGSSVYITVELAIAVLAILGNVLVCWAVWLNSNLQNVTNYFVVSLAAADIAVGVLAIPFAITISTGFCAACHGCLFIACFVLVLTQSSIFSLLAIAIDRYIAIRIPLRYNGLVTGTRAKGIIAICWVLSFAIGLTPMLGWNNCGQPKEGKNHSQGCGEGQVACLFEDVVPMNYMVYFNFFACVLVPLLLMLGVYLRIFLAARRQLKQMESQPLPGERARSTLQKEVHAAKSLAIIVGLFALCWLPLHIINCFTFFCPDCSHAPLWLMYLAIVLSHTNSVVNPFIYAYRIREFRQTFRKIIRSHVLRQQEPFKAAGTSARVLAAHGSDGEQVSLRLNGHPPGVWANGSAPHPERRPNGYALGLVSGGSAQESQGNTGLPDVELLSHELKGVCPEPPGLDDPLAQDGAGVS
# In short: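 IC50 values come from 4-parameter logistic fits of filter-bound radioactivity, normalized to total (1% DMSO) and nonspecific (1 μM ZM241385) binding. Recombinant human A2a membranes (HEK293 or CHO) were exposed to compound for 15–30 min, then to [3H]SCH58261 (4 nM working dilution) for 60 min at room temperature in Tris pH 7.4/MgCl2/Tween20 buffer.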
# [2] = target: human A2b adenosine receptor (Homo sapiens (Human), UniProt P29275); assay: A2b radioligand filtration binding assay; conditions: membranes from HEK293 cells expressing human A2b receptor
# Sequence of human A2b adenosine receptor (P29275 whole entry): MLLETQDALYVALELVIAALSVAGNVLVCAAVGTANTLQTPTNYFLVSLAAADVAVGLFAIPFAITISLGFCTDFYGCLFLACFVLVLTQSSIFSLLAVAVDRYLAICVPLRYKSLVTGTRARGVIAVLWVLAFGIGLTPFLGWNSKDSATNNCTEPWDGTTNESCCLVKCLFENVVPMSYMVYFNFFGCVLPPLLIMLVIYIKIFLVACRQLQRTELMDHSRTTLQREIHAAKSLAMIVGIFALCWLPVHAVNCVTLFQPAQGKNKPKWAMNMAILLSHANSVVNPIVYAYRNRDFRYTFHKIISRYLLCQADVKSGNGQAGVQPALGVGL
# In short: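 Displacement of a tritiated A2b antagonist (working solution 14 nM) from human A2b receptor membranes of recombinant HEK293 cells, in Mg/Ca-free PBS pH 7.4, 60 min at room temperature after 15 to 30 min compound preincubation. Filtered, counted; normalized to total and 20 μM NECA non-specific binding; IC50 from logistic fit.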
# Sequence of human A2A receptors (P29274 whole entry): as the sequence (P29274 whole entry) above
SMILES,IC50 (human A2A receptors) [nM],IC50 [1] [nM],IC50 [2] [nM]
"COc1cc(F)cc2c1nc(N)n1nc(C3CC(C)CN(c4cn(C(C)C(C)O)nc4C)C3)nc21 (single isomer, unassigned) [Example 224, (2S,3S or 2R,3R)-3-(4-((3R,5S or 3S,5R)-3-(5-amino-9-fluoro-7-methoxy-[1,2,4]triazolo[1,5-c]quinazolin-2-yl)-5-methylpiperidin-1-yl)-3-methyl-1H-pyrazol-1-yl)butan-2-ol]",0.4,–,–
"COc1cc2nc(N)n3nc([C@@H]4CCN(c5cnn(CC6(O)CCC6)c5)C4)nc3c2cc1F [Example 38, (R)-1((4-(3-(5-amino-9-fluoro-8-methoxy-[1,2,4]triazolo[1,5-c]quinazolin-2-yl)prrolidin-l-yl)-1H-pyrazol-1-yl)methyl)cyclobutan-1-ol]",–,16.9,182
"COc1cc2nc(N)n3nc(C4CCC(C)N(c5cnn(CC(C)(C)O)c5C)C4)nc3c2cc1F [Example 52, 1-(4-((2R,5S, or 2S,5R)-5-(5-amino-9-fluoro-8-methoxy-[1,2,4]triazolo[1,5-c]quinazolin-2-yl)-2-methylpiperidin-1-yl)-5-methyl-1H-pyrazol-1-yl)-2-methylpropan-2-ol]",–,18.3,3010
"COc1cc2nc(N)n3nc(C4CCC(C)N(c5cn(CC(C)(C)O)nc5C)C4)nc3c2cc1F [Example 53, 1-(4-((2R,5S, or 2S,5R)-5-(5-amino-9-fluoro-8-methoxy-[1,2,4]triazolo[1,5-c]quinazolin-2-yl)-2-methylpiperidin-1-yl)-3-methyl-1H-pyrazol-1-yl)-2-methylpropan-2-ol]",–,44.1,4240
"COc1cc2nc(N)n3nc([C@@H]4CCCN(c5cnn(CCCC(C)=O)c5)C4)nc3c2cc1F [Example 93, (R)-5-(4-(3-(5-amino-9-fluoro-8-methoxy-[1,2,4]triazolo[1,5-c]quinazolin-2-yl)piperidin-1-yl)-1H-pyrazol-1-yl)pentan-2-one]",–,5.8,315
"Cn1cc(N2CCC[C@@H](c3nc4c5cc(Cl)cc(Cl)c5nc(N)n4n3)C2)cn1 [Example 113, (R)-7,9-dichloro-2-(1-(1-methyl-1H-pyrazol-4-yl)piperidin-3-yl)-[1,2,4]triazolo[1,5-c]quinazolin-5-amine]",–,58.1,470
"COc1cc2nc(N)n3nc([C@@H]4CCCN(c5cn(CS(C)(=O)=O)nc5C)C4)nc3c2cc1F [Example 129, (R)-9-fluoro-8-methoxy-2-(1-(3-methyl-1-((methylsulfonyl)methyl)-1H-pyrazol-4-yl)piperidin-3-yl)-[1,2,4]triazolo[1,5-c]quinazolin-5-amine]",–,4.1,470
"COc1cc2nc(N)n3nc([C@@H]4CCCN(c5cnn(CS(C)(=O)=O)c5)C4)nc3c2cc1F [Example 131, (R)-9-fluoro-8-methoxy-2-(1-(1-((methylsulfonyl)methyl)-1H-pyrazol-4-yl)piperidin-3-yl)-[1,2,4]triazolo[1,5-c]quinazolin-5-amine]",–,11.8,66
"COc1cc2nc(N)n3nc([C@@H]4CCCN(c5cn(CS(C)(=O)=O)nc5C(F)F)C4)nc3c2cc1F [Example 132, (R)-2-(1-(3-(difluoromethyl)-1-((methylsulfonyl)methyl)-pyrazol-4-yl)piperidin-3-yl)-9-fluoro-8-methoxy-[1,2,4]triazolo[1,5-c]quinazolin-5-amine]",–,6.7,243
"COc1cc2nc(N)n3nc([C@H]4CN(c5cnn(CC(C)(C)O)c5C)CCO4)nc3c2cc1F [Example 141, (R)-1-(4-(2-(5-amino-9-fluoro-8-methoxy-[1,2,4]triazolo[1,5-c]quinazolin-2-yl)morpholino)-5-methyl-1H-pyrazol-1-yl)-2-methylpropan-2-ol]",–,24.1,1760

# Now from value to compound:
IC50 (human A2A receptors) [nM],IC50 [1] [nM],IC50 [2] [nM],SMILES
–,0.6,12.2,"COc1cc(F)cc2c1nc(N)n1nc([C@@H]3CCCN(c4ccc(OC(C)C)nc4)C3)nc21 [Example 35, (R)-9-fluoro-2-(1-(6-isopropoxypyridin-3-yl)piperidin-3-yl)-7-methoxy-[1,2,4]triazolo[1,5-c]quinazolin-5-amine]"
–,1.6,93,"COc1cc(F)cc2c1nc(N)n1nc([C@@H]3CCCN(c4ncn(CC(C)(C)O)n4)C3)nc21 [Example 36, (R)-1-(3-(3-(5-amino-9-fluoro-7-methoxy-[1,2,4]triazolo[1,5-c]quinazolin-2-yl)piperidin-1-yl)-1H-1,2,4-triazol-1-yl)-2-methylpropan-2-ol]"
–,1.1,468,"COc1cc(F)cc2c1nc(N)n1nc([C@@H]3CCCN(c4nc(C)n(CC(C)(C)O)n4)C3)nc21 [Example 37, (R)-1-(3-(3-(5-amino-9-fluoro-7-methoxy-[1,2,4]trazolo[1,5-c]quinazolin-2-yl)piperidin-1-yl)-5-methyl-1H-1,2,4-triazol-1-yl)-2-methylpropan-2-ol]"
–,1.4,4.8,"COc1cc(F)cc2c1nc(N)n1nc([C@@H]3CCCN(c4cnn(C)c4)C3)nc21 [Example 100, (R)-9-fluoro-7-methoxy-2-(1-(1-methyl-1H-pyrazol-4-yl)piperidin-3-yl)-[1,2,4]triazolo[1,5-c]quinazolin-5-amine]"
–,0.7,7.8,"COc1cc2nc(N)n3nc([C@@H]4CC[C@H](C)N(c5cnn(CC(C)(C)O)c5)C4)nc3c2cc1F [Example 109, 1-(4-((2S,5R)-5-(5-amino-9-fluoro-8-methoxy-[1,2,4]triazolo[1,5-c]quinazolin-2-yl)-2-methylpiperidin-1-yl)-1H-pyrazol-1-yl)-2-methylpropan-2-ol]"
–,0.2,1.8,"C[C@H]1CC[C@@H](c2nc3c4cc(F)c(Cl)cc4nc(N)n3n2)CN1c1cnn(CC(C)(C)O)c1 [Example 110, 1-(4-((2S,5R)-5-(5-amino-8-chloro-9-fluoro-[1,2,4]triazolo[1,5-c]quinazolin-2-yl)-2-methylpiperidin-1-yl)-1H-pyrazol-1-yl)-2-methylpropan-2-ol]"
–,0.7,16.5,"C[C@H]1CC[C@@H](c2nc3c4cc(F)cc(F)c4nc(N)n3n2)CN1c1cnn(CC(C)(C)O)c1 [Example 111, 1-(4-((2S,5R)-5-(5-amino-7,9-difluoro-[1,2,4]triazolo[1,5-c]quinazolin-2-yl)-2-methylpiperidin-1-yl)-1H-pyrazol-1-yl)-2-methylpropan-2-ol]"
–,0.4,7.9,"Cc1cc2nc(N)n3nc([C@@H]4CC[C@H](C)N(c5cnn(CC(C)(C)O)c5)C4)nc3c2cc1F [Example 112, 1-(4-((2S,5R)-5-(5-amino-9-fluoro-8-methyl-[1,2,4]triazolo [1,5-c]quinazolin-2-yl)-2-methylpiperidin-1-yl)-1H-pyrazol-1-yl)-2-methylpropan-2-ol]"
–,1.2,78.7,"COc1cc2nc(N)n3nc([C@@H]4CCCN(c5cnn(CS(C)(=O)=O)c5C)C4)nc3c2cc1F [Example 130, (R)-9-fluoro-8-methoxy-2-(1-(5-methyl-1-((methylsulfonyl)methyl)-1H-pyrazol-4-yl)piperidin-3-yl)-[1,2,4]triazolo[1,5-c]quinazolin-5-amine]"
–,0.8,2720,"COc1cc2nc(N)n3nc([C@H]4CN(c5cn(CC(C)(C)O)nc5C)CCO4)nc3c2cc1F [Example 140, (R)-1-(4-(2-(5-amino-9-fluoro-8-methoxy-[1,2,4]triazolo[1,5-c]quinazolin-2-yl)morpholino)-3-methyl-1H-pyrazol-1-yl)-2-methylpropan-2-ol]"
